Experimental findings from US20140199327A1, “METHODS OF PROMOTING DIFFERENTIATION” (Genentech, Inc., priority 2011, published 2014) are described below.

For this experiment, the system named is p21. The experiment in a line: p21 and p53 expression in U2-OS cells. The following applies: etoposide treatment. It counts as cell-based, human. As for the experimental part:
U2-OS, HOS, SJSA, SAOS, or MG-63 cells were grown to 10-25% confluence and transfected with the plasmids indicated in combination with the marker plasmid pMACS using FuGENE 6 (Sigma).
Transfected cells were sorted with MACS-select H-2K^k microbeads (Miltenyi Biotec). RNA was extracted from cultured or sorted transfected cells with Qiagen RNeasy Mini kits. Protein was extracted from sorted or cultured cells via lysis in NP-40 buffer (1% NP-40, 120 mM NaCl, 50 mM Tris, pH=7.4, 1 mM EDTA) supplemented with protease inhibitor cocktail I and phosphatase inhibitor cocktails 1 and 2 (Calbiochem). Lysates were clarified by centrifugation at 15,000×G for 10 minutes prior to analysis. Protein content was normalized by BCA protein assay (Thermo Scientific). For dual shRNA/siRNA experiments, cells were transfected with DNA expression vectors via Fugene and subsequently transfected with control siRNA (sense-5′-[…]-3′ (SEQ ID NO:20)) or siRNA targeting p21 (5′-[…]-3′ (SEQ ID NO:21)) via nucleofection with program X-001 in nucleofection solution V (Lonza). DT-40 cells were transfected by nucleofection with program B-023 in nucleofection solution T (Lonza).
Rat monoclonal antibodies were raised against the C-terminal 100 amino-acids of human USP1 or WDR48 to produce the monoclonal USP1 antibody 5E10 and WDR48 antibody 9F10. […]

Turning to `COc1cc([C@@H]2c3cc4c(cc3[C@@H](O[C@@H]3O[C@@H]5CO[C@@H](C)O[C@H]5[C@H](O)[C@H]3O)[C@H]3COC(=O)[C@H]23)OCO4)cc(OC)c1O` [etoposide], the p21 induction entry is “induced”.
